# Test results published in patent publication EP0535528A1, “Antibacterial 5-Nitro-1-methyl-imidazolyl-3-terbutyl-2-hydroxy-aryl-carbinols” (EURORESEARCH S.r.L., priority 1991, dated 1993).
# How the values were obtained:
# [1] = tested on: Helicobapter pylori; experiment: Minimal inhibiting concentration (agar dilution); assay type: cell-based
# Procedure: Substances under examination: EU11100, EU11102, EU11103, EU11104. Comparison substance: Metronidazole Solubilization of the substances: All the substances to be studied are dissolved at room temperature in DMSO. […] 10 strains of Helicobapter pylori are used of recent clinical isolation […] The sowing of the bacteria, prepared as described in the preceding test is carried out by means a "multi-point inoculator". After 48 hours incubation under the condition described in the preceding test, the plates are examined and the Minimal Inhibiting Concentration is evaluated, namely that dose corresponding to growth absence.
# [2] = tested on: Helicobapter pylori; experiment: Inhibition halos of the bacterial growth (impregnated disks on agar); assay type: cell-based; details: for activity against the Helicobapter pylori strains used: 10 strains
# Procedure: Comparison substance: Metronidazole Solubilization of the substances : All the substances to be studied are dissolved at room temperature in DMSO.
# Some commercially available antibiogram disks are so impregnated with the above mentioned compounds that each disk has concentration equal to 10, 1, 0.1, 0.01 µg.
# 10 strains of Helicobapter pylori are used of recent clinical isolation.
# Columbia Blood Agar Base is used, containing 5% of defibrinated horse blood, 2 % of calf serum, 2 vials of Vitox per liter of medium and Vancomicine (10 µg/ml) Trimetoprim lactate(5 µg/ml) and Polimixin B (2.5 U/ml).
# 0.1 ml of a suspension of the different used strains are uniformly distributed onto Petri plates, containing 20 ml of Columbia Blood Agar base, obtained by taking a sample, by means of a platinum loop, of different colonies from a 48 hours culture, grown in anaerobiosis jars with "Gas Pack", without a catalyst and diluted into a physiological solution.
# 4 disks per plate, previously impregnated with the substances under examination, are then placed onto the agar layer of each plate.
# After 48 hours of anaerobiosis incubation, as above described, the inhibition halos of the bacterial growth, produced by the different activity of the substances inside the agar, are evaluated.
smiles,measurement,setting,value
"Cc1ncc([N+](=O)[O-])n1CCO [Metronidazole, reference compound]",MIC50,[1]; 10 strains,0.12 µg/mL
same,MIC90,[1]; 10 strains,0.25 µg/mL
same,MIC range,[1]; 10 strains,0.015 to 0.25 µg/mL
same,MIC,[1]; strain 1,0.25 µg/mL
same,MIC,[1]; strain 2,0.06 µg/mL
same,MIC,[1]; strain 3,0.25 µg/mL
same,MIC,[1]; strain 4,0.25 µg/mL
same,MIC,[1]; strain 5,0.015 µg/mL
same,MIC,[1]; strain 6,0.12 µg/mL
same,MIC,[1]; strain 7,0.25 µg/mL
same,MIC,[1]; strain 8,0.25 µg/mL
same,MIC,[1]; strain 9,0.12 µg/mL
same,MIC,[1]; strain 10,0.12 µg/mL
same,activity against the Helicobapter pylori strains used,[2]; 0.1 µg/disk,inactive
same,activity against the Helicobapter pylori strains used,[2]; 1 µg/disk,inactive
same,"Inhibition halo (mm), Average","[2]; average of 10 strains, 10 µg/disk",39.5 mm
same,activity against Helicobapter pylori,"[2]; general statement, at a low concentration",poorly effective
same,Inhibition halo (mm) at the concentration (µg/disk),"[2]; strain 1, 0.01 µg/disk",0 mm
same,Inhibition halo (mm) at the concentration (µg/disk),"[2]; strain 1, 0.1 µg/disk",0 mm
same,Inhibition halo (mm) at the concentration (µg/disk),"[2]; strain 1, 1 µg/disk",0 mm
same,Inhibition halo (mm) at the concentration (µg/disk),"[2]; strain 1, 10 µg/disk",45 mm
same,Inhibition halo (mm) at the concentration (µg/disk),"[2]; strain 2, 0.01 µg/disk",0 mm
same,Inhibition halo (mm) at the concentration (µg/disk),"[2]; strain 2, 0.1 µg/disk",0 mm
same,Inhibition halo (mm) at the concentration (µg/disk),"[2]; strain 2, 1 µg/disk",0 mm
same,Inhibition halo (mm) at the concentration (µg/disk),"[2]; strain 2, 10 µg/disk",33 mm
same,Inhibition halo (mm) at the concentration (µg/disk),"[2]; strain 3, 0.01 µg/disk",0 mm
same,Inhibition halo (mm) at the concentration (µg/disk),"[2]; strain 3, 0.1 µg/disk",0 mm
same,Inhibition halo (mm) at the concentration (µg/disk),"[2]; strain 3, 1 µg/disk",0 mm
same,Inhibition halo (mm) at the concentration (µg/disk),"[2]; strain 3, 10 µg/disk",45 mm
same,Inhibition halo (mm) at the concentration (µg/disk),"[2]; strain 4, 0.01 µg/disk",0 mm
same,Inhibition halo (mm) at the concentration (µg/disk),"[2]; strain 4, 0.1 µg/disk",0 mm
same,Inhibition halo (mm) at the concentration (µg/disk),"[2]; strain 4, 1 µg/disk",0 mm
same,Inhibition halo (mm) at the concentration (µg/disk),"[2]; strain 4, 10 µg/disk",42 mm
same,Inhibition halo (mm) at the concentration (µg/disk),"[2]; strain 5, 0.01 µg/disk",0 mm
same,Inhibition halo (mm) at the concentration (µg/disk),"[2]; strain 5, 0.1 µg/disk",0 mm
same,Inhibition halo (mm) at the concentration (µg/disk),"[2]; strain 5, 1 µg/disk",0 mm
same,Inhibition halo (mm) at the concentration (µg/disk),"[2]; strain 5, 10 µg/disk",42 mm
same,Inhibition halo (mm) at the concentration (µg/disk),"[2]; strain 6, 0.01 µg/disk",0 mm
same,Inhibition halo (mm) at the concentration (µg/disk),"[2]; strain 6, 0.1 µg/disk",0 mm
same,Inhibition halo (mm) at the concentration (µg/disk),"[2]; strain 6, 1 µg/disk",0 mm
same,Inhibition halo (mm) at the concentration (µg/disk),"[2]; strain 6, 10 µg/disk",41 mm
same,Inhibition halo (mm) at the concentration (µg/disk),"[2]; strain 7, 0.01 µg/disk",0 mm
same,Inhibition halo (mm) at the concentration (µg/disk),"[2]; strain 7, 0.1 µg/disk",0 mm
same,Inhibition halo (mm) at the concentration (µg/disk),"[2]; strain 7, 1 µg/disk",0 mm
same,Inhibition halo (mm) at the concentration (µg/disk),"[2]; strain 7, 10 µg/disk",32 mm
same,Inhibition halo (mm) at the concentration (µg/disk),"[2]; strain 8, 0.01 µg/disk",0 mm
same,Inhibition halo (mm) at the concentration (µg/disk),"[2]; strain 8, 0.1 µg/disk",0 mm
same,Inhibition halo (mm) at the concentration (µg/disk),"[2]; strain 8, 1 µg/disk",0 mm
same,Inhibition halo (mm) at the concentration (µg/disk),"[2]; strain 8, 10 µg/disk",40 mm
same,Inhibition halo (mm) at the concentration (µg/disk),"[2]; strain 9, 0.01 µg/disk",0 mm
same,Inhibition halo (mm) at the concentration (µg/disk),"[2]; strain 9, 0.1 µg/disk",0 mm
same,Inhibition halo (mm) at the concentration (µg/disk),"[2]; strain 9, 1 µg/disk",0 mm
same,Inhibition halo (mm) at the concentration (µg/disk),"[2]; strain 9, 10 µg/disk",38 mm
same,Inhibition halo (mm) at the concentration (µg/disk),"[2]; strain 10, 0.01 µg/disk",0 mm
same,Inhibition halo (mm) at the concentration (µg/disk),"[2]; strain 10, 0.1 µg/disk",0 mm
same,Inhibition halo (mm) at the concentration (µg/disk),"[2]; strain 10, 1 µg/disk",0 mm
same,Inhibition halo (mm) at the concentration (µg/disk),"[2]; strain 10, 10 µg/disk",37 mm
